Experimental data: PMC8155176, “Reversible modulation of circadian time with chronophotopharmacology” (Nature Communications, 2021)
“Also recorded” adds a separate entry of the source. Where two headings read alike, the source gives them in different places.

Columns and labels:
CKIα = target: T1, CKIα (Homo sapiens, UniProt P48729); assay: In vitro kinase assay (Kinase Glo), CKIα; assay type: biochemical; details: for fold difference in CKIα inhibition between dark and UV-irradiated sample: trans vs cis-enriched (365 nm), 5 is stronger under light, the others weaker; for light dependence of CKIα inhibition (in words): UV light 365 nm vs dark
T1 construct: purchased Invitrogen PV3850
Experimental: A stock solution of 7.4 mM in DMSO was prepared and thermally adapted by heating to c.a. 100 °C for 1 min. Two series of eight samples were prepared with consecutive three-time dilutions from the stock solution. One of the series (‘dark’ samples) was prepared in dark Eppendorf tube, the other series (‘light’ samples) was pre-irradiated with UV light (365 nm, UV lamp Spectroline, ENB-280/FE, 1 × 8 Watt) for 45 min. For compound 9, 1 mM solution in DMSO was thermally adapted by heating to 80 °C for 2 min and split into two vials. One vial was kept in the dark and the other was irradiated with green light (530 nm, 3x Nichia NCSG219B-V1, 3 × 550 mW, Sahlmann Photochemical Solutions) for 60 min. Both dark-kept and irradiated samples were subjected to 8-point 3-fold dilutions. All the solutions were applied to the well plate under a red lamp in the dark room in order to prevent ambient-light-induced photo-isomerization.
The assays were performed on a white, solid-bottom 384-well plates. The total volume for the reaction is 10.5 µl. Firstly, a solution of CKI and peptide was added to the bottom of the well (9 µL). Next, a corresponding solution of the compound (0.5 μL, final 5% DMSO) followed by 50 μM ATP solution (1 μL) were pipetted into the upper corners of each well. The enzymatic reaction was started by spinning down the plate (1800 x g, 2 min).
By employing this method, all reactions were started at the same time, minimizing variance between different samples. Incubation for 3 h at 30 °C or 2 h at 37 °C allowed for the enzymatic phosphorylation of the substrate peptide. As the reaction started, the wells with ‘light’ samples were irradiated with UV light or kept in dark in case of experiment with compound 9. ‘Dark’ (0 min pre-irradiation) wells were covered with an aluminum sticker from the beginning. After the incubation, 10 μL Kinase Glo® (Promega) was applied into the wells and the luminescent signal was recorded by a plate reader (BioTek Synergy H1 or Cytation).
The total volume for the reaction was 10.5 µl. The reaction mixture contained the following: for CKIδ, 4 ng/µl CKIδ (14-520, Eurofins), 50 µM peptide substrate RKKKAEpSVASLTSQCSYSS corresponding to human PER2 Lys659-Ser674, and CKI buffer (40 mM Tris, 10 mM MgCl2, 0.5 mM DTT, 0.1 mg/ml BSA, pH7.4); for CKIα, 1 ng/µl CKIα (PV3850, Invitrogen), 50 µM CKI peptide substrate (60547-1, Anaspec), and CKI buffer.
The data obtained from the in vitro kinase assay was analyzed using GraphPad software, in which the luminescence outcome is normalized. Normalization is done using a luminescent output of the control that contained high concentration of longdaysin (370 µM) as 100% inhibition and DMSO for 0% inhibition. In all graphs, a dose-response fit was used to obtain

U2OS cells = assay: Circadian period assay in Bmal1-dLuc U2OS reporter cells; assay type: cell-based, human
Experimental: Next, we tested if the observed light-dependent CKIα inhibition translates into photomodulation of the circadian period in human U2OS cells (Fig. 2d). The Bmal1-dLuc reporter cell line contains the coding sequence of destabilized luciferase driven by the Bmal1 gene promoter sequence. The cell culture medium for luminescence recording includes a high concentration of luciferin (0.2 mM), a substrate for luciferase, which strongly absorbs UV light (Supplementary Fig. 30). […] As the circadian period change is directly correlated with the potency and concentration of the inhibitor[10], the cells were treated with photoswitchable modulators using a broad range of concentrations.
In comparison to the kinase assay, the direct use of UV light for preventing a thermal back-isomerization of the cis-isomer was not feasible due to the cell-damaging effect and the presence of luciferin in the medium. Therefore, the modulators were kept in the dark or photo-isomerized in DMSO prior to the addition, without further irradiation during the circadian assay. All three modulators lengthened the period in the U2OS cells both in the dark and upon irradiation (Fig. 2d). […] Altogether, based on the efficient generation of the cis-isomer under irradiation, retained potency and promising light-modulation of CKIα inhibition, the meta-substituted modulator 4 was identified as representing lead substitution pattern for further investigation.
Stable U2OS reporter cells harboring Bmal1-dLuc reporter were suspended in phenol red-free culture medium [DMEM (D2902, Sigma) supplemented with 10% fetal bovine serum, 3.5 mg/mL D-glucose, 3.7 mg/mL sodium bicarbonate, 0.29 mg/mL L-glutamine, 100 units/mL penicillin, and 100 µg/mL streptomycin] and plated onto a white, solid-bottom 384-well plates at 30 µL (3000 cells) per well. After 2 days, 40 µL of phenol red-free explant medium [DMEM (D2902, Sigma) supplemented with 2% B27 (Gibco), 10 mM HEPES, 3.5 mg/mL D-glucose, 0.38 mg/mL sodium bicarbonate, 0.29 mg/mL L-glutamine, 100 units/mL penicillin, 100 µg/mL streptomycin, and 0.2 mM luciferin; pH 7.2] was dispensed into each well, followed by the application of 0.5 μL of compounds (dissolved in DMSO; final 0.7% DMSO; pre-irradiated with UV for 60 min, white LED for 10 min, and/or green LED for 60 min when indicated). The plate was covered with an optically clear film, and subjected to irradiation with 530 nm LED lamp (3 × 550 mW, λmax = 530 nm, FWHM 36 nm, Sahlmann Photochemical Solutions) or 400 nm LED lamp (3 × 1000 mW, λmax = 400 nm, FWHM 11.9 nm, Sahlmann Photochemical Solutions) from 12 cm distance for 30 min. Compound handling and irradiation were conducted in a dark room under red lamp illumination. Luminescence was recorded every 100 min in a microplate reader, Infinite M200Pro (Tecan). For the phase control experiments, cellular light irradiation was performed in a dark 32 °C room and luminescence was recorded in a microplate reader Synergy H1 (BioTek) placed in the same room, to avoid possible effect of transient temperature change on the phase. Circadian period and phase were determined from luminescence rhythms by a curve fitting program MultiCycle (Actimetrics). Data from the first day was excluded from analysis, because of transient changes in luminescence upon medium change. Statistical significance was evaluated using two-way analysis of variance (ANOVA) followed by a Sidak’s multiple comparisons test or one-way ANOVA followed by a Tukey’s multiple comparisons test using Prism software (GraphPad Software).

[1] = Chemical stability under dark and irradiation conditions followed by LCMS; assay type: physicochemical; details: 40 µM in kinase assay buffer or cell culture medium, dark, 365 nm 3 h, 400 nm 30 min
Experimental: LCMS traces of stability studies
Supplementary Figure 8. Chemical stability of compound 3 under dark and irradiation conditions followed by LCMS. All the samples were prepared as 40 µM solution in buffer or cell culture medium. ‘Buffer’ and ‘medium’ samples were injected immediately upon dissolving compound 3, ‘buffer_3h_dark’ was injected after 3 h of keeping the solution in dark, ‘buffer_3h_365nm’ after irradiation of the sample for 3 h with UV light in kinase assay buffer, and ‘medium_30min_400nm’ after 30 min of irradiation with 400 nm in cell culture medium. The trans-isomer was followed at the retention time of 10.41-10.47 min and the cis-isomer at the retention time of 8.84-8.90 min. Mass spectra of both isomers in different […]
(1 picture or pasted object on this page, not shown here)

[2] = Solubility test in kinase assay buffer and cell culture medium; assay type: physicochemical
Experimental: Solubility studies were performed in kinase assay buffer and cell culture medium. Half of the solutions of the compounds in DMSO was thermally adapted (‘Dark’) and the other half was irradiated for 1 h with UV light (λmax = 365 nm, ‘Light’) green light in case of 9 (λmax = 530 nm, ‘Light’). Solubility is indicated in the Supplementary Table 1. […]
precipitation were excluded from the dose-response curves in the enzymatic assay .
Supplementary Table 1. Solubility of the photos witchable compounds in the highest concentrations that were used in the enzymatic assay.
Kinase assay buffer Cell culture medium […]

[3] = irradiated with UV light (365 nm) before and during the assay, cis-enriched, read-out: CKIα IC50, light
[4] = thermally adapted trans-isomer kept in the dark, read-out: CKIα IC50, dark

T1 sequence (P48729 whole entry): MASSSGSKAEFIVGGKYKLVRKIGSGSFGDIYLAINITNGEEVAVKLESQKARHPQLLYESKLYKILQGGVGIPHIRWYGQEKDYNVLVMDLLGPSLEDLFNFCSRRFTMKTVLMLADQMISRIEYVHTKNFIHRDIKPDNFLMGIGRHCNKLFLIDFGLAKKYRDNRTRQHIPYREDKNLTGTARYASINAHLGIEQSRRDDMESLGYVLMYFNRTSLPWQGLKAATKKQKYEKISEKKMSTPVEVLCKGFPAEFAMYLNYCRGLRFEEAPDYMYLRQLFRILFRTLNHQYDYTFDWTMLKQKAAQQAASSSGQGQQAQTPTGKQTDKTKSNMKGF

| IC50 (CKIα; [3]) | IC50 (CKIα; [4]) | fold difference in CKIα inhibition between dark and UV-irradiated sample (CKIα) | Structure (SMILES) | effect of UV light irradiation on period lengthening (U2OS cells; UV (365 nm) pre-irradiated) | recovery of biological activity upon back-isomerization with white light (U2OS cells; UV light followed by white light) | period lengthening effect under dark conditions (U2OS cells; dark) | chemical stability (reduction or oxidation of the azo group) [1] | light dependence of CKIα inhibition (in words) (CKIα) | light-induced deactivation of period lengthening (U2OS cells; 3 μM, UV pre-irradiated vs dark) | light-induced change of period lengthening (U2OS cells; 72 μM, UV pre-irradiated vs dark) | solubility in aqueous media (in words) [2] | period lengthening in U2OS cells (U2OS cells; 24 μM) | light-modulation of period lengthening (U2OS cells; 24 μM, UV pre-irradiated vs dark) | influence of green or violet light on the period change (U2OS cells; control experiment) |
| --- | --- | --- | --- | --- | --- | --- | --- | --- | --- | --- | --- | --- | --- | --- |
| 9.3 µM | 2.4 µM | four times less potent | CC(C)n1cnc2c(NCc3cccc(/N=N/c4c(F)cccc4F)c3)ncnc21 [Compound 7] | suppressed by UV light irradiation; also recorded: most pronounced period lengthening deactivation | partial recovery | strong period lengthening effect | Products of reduction or oxidation were not observed; also recorded: both chemical and photochemical stability | – | – | – | – | – | – | – |
| 4.5 µM | 3.6 µM | – | CC(C)n1cnc2c(NCc3ccc(/N=N/c4ccccc4)cc3)ncnc21 [Compound 3] | – | – | – | Products of reduction or oxidation were not observed | no obvious light-dependent changes of CKIα inhibition | – | – | – | 4 h | no light-modulation | – |
| 13.3 µM | 2.8 µM | 5 fold | COc1ccc(/N=N/c2cccc(CNc3ncnc4c3ncn4C(C)C)c2)cc1 [Compound 6] | – | – | – | Products of reduction or oxidation were not observed | – | – | – | increased solubility | – | – | – |
| 4.3 µM | – | – | CC(C)n1cnc2c(NCc3cccc(C(F)(F)F)c3)ncnc21 [longdaysin, reference compound] | – | – | – | – | negligible effect of UV irradiation on the potency | – | – | – | – | – | negligible influence |

| Structure (SMILES) | IC50 (CKIα; [3]) | IC50 (CKIα; [4]) | fold difference in CKIα inhibition between dark and UV-irradiated sample (CKIα) | effect of UV light irradiation on period lengthening (U2OS cells; UV (365 nm) pre-irradiated) | recovery of biological activity upon back-isomerization with white light (U2OS cells; UV light followed by white light) | period lengthening effect under dark conditions (U2OS cells; dark) | chemical stability (reduction or oxidation of the azo group) [1] | light dependence of CKIα inhibition (in words) (CKIα) | light-induced deactivation of period lengthening (U2OS cells; 3 μM, UV pre-irradiated vs dark) | light-induced change of period lengthening (U2OS cells; 72 μM, UV pre-irradiated vs dark) | solubility in aqueous media (in words) [2] | period lengthening in U2OS cells (U2OS cells; 24 μM) | light-modulation of period lengthening (U2OS cells; 24 μM, UV pre-irradiated vs dark) | influence of green or violet light on the period change (U2OS cells; control experiment) |
| --- | --- | --- | --- | --- | --- | --- | --- | --- | --- | --- | --- | --- | --- | --- |
| CC(C)n1cnc2c(NCc3cccc(/N=N/c4ccccc4)c3)ncnc21 [Compound 4] | 8.6 µM | 1.9 µM | 4.5 fold | – | – | – | Products of reduction or oxidation were not observed | substantial light-induced inactivation | ca. 2 h | – | – | – | – | – |
| CC(C)n1cnc2c(NCc3ccccc3/N=N/c3ccccc3)ncnc21 [Compound 5] | 54 µM | 96 µM | – | – | – | – | Products of reduction or oxidation were not observed | – | – | weak activation | solubility issues at high concentrations | – | – | – |
